Experimental data as given in patent US20190022162A1, “COMBINATION ANTICANCER ENDOWED WITH ANTITUMOR ACTIVITY, COMPRISING ALKALOIDS OF CHELIDONIUM MAJUS” (International Society for Drug Development S.R.L., priority 2015, published 2019).

Legend:
[1] = system: MIA PaCa-2 pancreatic cancer cell line; experiment: Cell counting (Trypan blue, Neubauer chamber), MIA PaCa-2 cells; format: cell-based; settings: for percentage of viable cells relative to the control: 48 h
Protocol: (§1) The MIA PaCa-2 cells were cultivated in T25 flasks and treated with the agents after reaching a confluence of 90%. After a 48 hours treatment, the cells were detached with trypsin-EDTA and suspended in medium consisting of 50% DMEM and 50% Trypan blue. The number of viable cells after each treatment was estimated by using the Neubauer counting chamber, excluding those cells which turned out positive to Trypan blue. At least three counts were made for each treatment.
The percentage of viable cells relative to the control was determined by the ratio between the number of treated cells and the number of untreated cells.

[2] = system: MIA PaCa-2 (pancreatic carcinoma); experiment: WST-1 assay (dehydrogenase activity / cell viability), MIA PaCa-2 cells
[3] = Cell counting (Trypan blue, Neubauer chamber), HDF cells; format: cell-based, human; settings: human, human dermal fibroblasts (HDF)
Protocol: (§2) For sake of completeness' of information and for the purpose of evaluating the differential cytotoxicity exerted both by the individual components of the combinations and by the combinations themselves on tumour and normal cells, the same treatments tested on U343 cells were also conducted on human dermal fibroblasts (HDF), chosen as a model of cells not concerned by tumour pathologies; this allowed, in the case of treatments tested on U343 cells, evaluations of the differential effects of the tested agents against tumour cells and against a model of normal cells, in accordance with the invention.
as §1, with “U343 cells and the HDF” for “MIA PaCa-2”, “After” for “After a”, “hours of” for “hours”, “excluding” for “excluding those”, “cells” for “cells which turned out”, “countings” for “counts”
(§3) The percentage of viable cells compared to the control was determined by the ratio between the number of treated cells and the number of untreated cells.

U343 (glioblastoma) [4] = experiment: WST-1 assay (dehydrogenase activity / cell viability), U343 cells; settings: 48 h
U343 (glioblastoma) [5] = experiment: Cell counting (Trypan blue, Neubauer chamber), U343 cells; format: cell-based; settings: for percentage of viable cells compared to the control: 48 h
Protocol: as §1, with “U343 cells and the HDF” for “MIA PaCa-2”, “After” for “After a”, “hours of” for “hours”, “excluding” for “excluding those”, “cells” for “cells which turned out”, “countings” for “counts”
as §3

[6] = system: human dermal fibroblasts (HDF); experiment: Cell counting (Trypan blue, Neubauer chamber), HDF cells; format: cell-based
Protocol: as §2
as §1, with “U343 cells and the HDF” for “MIA PaCa-2”, “After” for “After a”, “hours of” for “hours”, “excluding” for “excluding those”, “cells” for “cells which turned out”, “countings” for “counts”
as §3

U343 cells / HDF cells = experiment: Therapeutic Favourability Index (ratio of viable U343 to viable HDF cells); format: cell-based
Excerpt: It may be useful to remind that the TFI parameter allows estimating the ratio between desired cytotoxicity (on U343 cells) and undesired cytotoxicity (on HDF cells used as a normal cell model). The lower the value of the TFI parameter, the more the assayed agent is adequate for therapeutic use, since this parameter measures the ratio between desired cytotoxicity (on tumour cells) and undesired cytotoxicity (on the cells of the non-tumour model).

[7] = 2.154 μM (combination equimolar)
[8] = 4.642 μM (combination equimolar)

In the case of `Nc1ccn([C@@H]2O[C@H](CO)[C@@H](O)C2(F)F)c(=O)n1` [Gemcitabine, gemcitabine, reference compound], the “percentage of viable cells relative to the control” value ([1]; Gemcitabine 20 μM) is reported as 33%, the viability at 20 µM ([1]; Homo sapiens, MIA PaCa-2, 48 h, Gemcitabine 20 μM, read-out: percentage of viable cells relative to the control) is reported as greater than 30% and the “effect on cell metabolic activity” value ([2]; agent alone, 0.1-10 μM) is reported as “essentially negligible increase”.

Work on `Cn1nnc2c(C(N)=O)ncn2c1=O` [temozolomide, reference compound] yielded a cytotoxicity at 48 h ([3]; direct administration, decrease up to, read-out: reduction in the percentage of viable HDF cells) of 60 to 70%.

In the case of `CN1Cc2c(ccc3c2OCO3)[C@@H]2[C@H]1c1cc3c(cc1C[C@@H]2O)OCO3` [Chelidonine, chelidonine], the “Δ (viability %)” value (U343 (glioblastoma) [4]; 0.1 μM (combination equimolar)) is reported as 2.4722%, the “Δ (viability %)” value (U343 (glioblastoma) [4]; 1 μM (combination equimolar)) is reported as 25.9168% and the “Δ (viability %)” value (U343 (glioblastoma) [4]; [7]) is reported as 40.0495%. For the same molecule, the “Δ (viability %)” value (U343 (glioblastoma) [4]; [8]) was 24.4335% and the “Δ (viability %)” value (U343 (glioblastoma) [4]; 10 μM (combination equimolar)) was 14.3799%.

In the case of `COc1ccc2cc3[n+](cc2c1OC)CCc1cc2c(cc1-3)OCO2` [Berberine, berberine], the “% proliferation of U343 against control” value (U343 (glioblastoma) [5]; 0.464 μM) is reported as 94.00%, the “% proliferation of U343 against control” value (U343 (glioblastoma) [5]; 2.154 μM) is reported as 82.60% and the “% proliferation of U343 against control” value (U343 (glioblastoma) [5]; 10.0 μM) is reported as 59.80%. The “percentage of viable cells compared to the control” value (U343 (glioblastoma) [5]; Ber 0.464 μM) was 94%, the “percentage of viable cells compared to the control” value (U343 (glioblastoma) [5]; Ber 2.154 μM) was 82.6% and the “percentage of viable cells compared to the control” value (U343 (glioblastoma) [5]; Ber 10 μM) was 59.8%. The “% proliferation of HDF against control” value ([6]; 0.464 μM) was 82.65%, the “% proliferation of HDF against control” value ([6]; 2.154 μM) was 71.41% and the “% proliferation of HDF against control” value ([6]; 10.0 μM) was 67.35%. The viability at 48 h, 0.464 μM ([3]; Ber 0.464 μM, 48 h, read-out: percentage of viable cells compared to the control) was 82.7%, the viability at 48 h, 2.154 μM ([3]; Ber 2.154 μM, 48 h, read-out: percentage of viable cells compared to the control) was 70.4% and the viability at 48 h, 10 μM ([3]; Ber 10 μM, 48 h, read-out: percentage of viable cells compared to the control) was 67.3%. For the same molecule, the “TFI index U343/HDF % proliferation ratio” value (U343 cells / HDF cells; 0.464 μM) was 1.137, the “TFI index U343/HDF % proliferation ratio” value (U343 cells / HDF cells; 2.154 μM) was 1.173 and the “TFI index U343/HDF % proliferation ratio” value (U343 cells / HDF cells; 10.0 μM) was 0.888. The “percentage of viable cells relative to the control” value ([1]; Ber 0.4 μM) was 88%, the “percentage of viable cells relative to the control” value ([1]; Ber 2.0 μM) was 51% and the “percentage of viable cells relative to the control” value ([1]; Ber 10 μM, listed as Ber) was 33%. For the same molecule, the “percentage of viable cells relative to the control” value ([1]; Ber 50 μM) was 24%, the “Δ (viability %)” value ([2]; 0.215 μM (combination equimolar), 48 h) was 5.73% and the “decrease in the metabolic activity” value ([2]; starting from concentrations slightly lower than 10 μM) was “approx. 50%”. The “Δ (viability %)” value (U343 (glioblastoma) [4]; 0.1 μM (combination equimolar)) was 23.2128%, the “Δ (viability %)” value (U343 (glioblastoma) [4]; 0.215 μM (combination equimolar)) was 12.3254% and the “Δ (viability %)” value (U343 (glioblastoma) [4]; 0.464 μM (combination equimolar)) was 36.3599%. The “Δ (viability %)” value (U343 (glioblastoma) [4]; 1 μM (combination equimolar)) was 27.3008%, the “Δ (viability %)” value (U343 (glioblastoma) [4]; [7]) was 15.4889% and the “Δ (viability %)” value (U343 (glioblastoma) [4]; [8]) was 11.3394%. The “Δ (viability %)” value (U343 (glioblastoma) [4]; 10 μM (combination equimolar)) was 10.3533%.
